# Results: patent US20040006094A1, “4-pyrimidinamine derivatives, pharmaceutical compositions and related methods” (priority 2000, published 2004)
# Key:
# [1] = system: differentiated P19 neurons; assay: Differentiated P19 excitotoxicity assay: neuroprotection by known kinase inhibitors against glutamate/glycine (Alamar Blue, CFDA); assay type: cell-based, murine; conditions: for Maximal Efficacy for Neuroprotection / IC50: 3 mM glutamate, 1 mM glycine; for IC50: mean of three separate curves, read-out: IC50 for Neuroprotection [lower-upper 95% C.I.]
# Procedure: Data points are the average±standard error of three separate experiments.
# These cells were used to measure the effects of various known kinase inhibitors (Compound Identification (ID) column in Table I) upon cytotoxicity-induced by NMDA. First, P19 cells were differentiated as described in Example 2. Then cells were exposed to 3 mM of glutamate in the presence of 1 mM glycine.
# Cell viability was determined. Compounds that prevented excitotoxicity were determined by measuring the percentage of viable cells compared to differentiated P19 cells that were not presented with a toxic insult (Table I).
# Cell viability was measured using two methods. The first method was a confocal, single-cell fluorescence imaging-based method using the live cell dye carboxy-fluorescein diacetate (CFDA). CFDA labels the cell bodies and processes of living cells. […] CFDA fluorescence was measured using a modified Attofluor Imager device (Atto Instruments, Rockville Pike, Md.). Cells were labeled with 1 uM CFDA for 15 min in media, then placed onto the stage of the Attofluor microscope. The dye was excited by light from a mercury lamp source passed through a 488 nm bandpass filter of 10 nm band width, passed through a CARV real-time confocal spinning disk module (Atto Instruments, Rockville, Md.), and then passed through a 40×oil immersion objective (Zeiss Fluar, NA=1.3). Emitted light was transmitted through a 495 nm dichroic mirror, collected to an Attofluor intensified CCD camera, and images were visualized using Attofluor Ratio Vision software (Atto Instruments, Rockville, Md.).
# The second method for measuring cell viability was a plate reader method. Cells plated into black 96 well plates (Packard viewplates) were loaded with 5% Alamar Blue dye (Biosource International). Alamar Blue is a dye that takes advantage of mitochondrial reductases to convert non-fluorescent resazurin to fluorescent resorufin (excitation 535 nm, emission 580 nm). Baseline fluorescence counts were read at room temperature in a Wallac plate reader immediately after addition of Alamar blue. Fluorescence counts of cell viability were taken the same way after 1 hour incubation at 37° C. Fluorescence was expressed as a percent of control, untreated cells after subtraction of background fluorescence. Live/dead cells were confirmed visually with a light microscope.
# Kinase inhibition activities and potencies were derived from the literature (Chijiwa et al. 1990; Favata et al. 1998; Henry et al. 1998; Inhorn and Majerus 1987; Kobayashi et al. 1989; Lee et al. 1994; Onoda et al. 1989; Tokumitsu et al. 1990). […] Curves were fit, and confidence intervals were determined using GraphPad Prism software.
# [2] = target: NMDA receptor (Mus musculus, UniProt P35436+P35438+Q01097); conditions: P19 membranes, concentration-dependent
# Chain of NMDA receptor (P35436 23-1464, other chains not shown): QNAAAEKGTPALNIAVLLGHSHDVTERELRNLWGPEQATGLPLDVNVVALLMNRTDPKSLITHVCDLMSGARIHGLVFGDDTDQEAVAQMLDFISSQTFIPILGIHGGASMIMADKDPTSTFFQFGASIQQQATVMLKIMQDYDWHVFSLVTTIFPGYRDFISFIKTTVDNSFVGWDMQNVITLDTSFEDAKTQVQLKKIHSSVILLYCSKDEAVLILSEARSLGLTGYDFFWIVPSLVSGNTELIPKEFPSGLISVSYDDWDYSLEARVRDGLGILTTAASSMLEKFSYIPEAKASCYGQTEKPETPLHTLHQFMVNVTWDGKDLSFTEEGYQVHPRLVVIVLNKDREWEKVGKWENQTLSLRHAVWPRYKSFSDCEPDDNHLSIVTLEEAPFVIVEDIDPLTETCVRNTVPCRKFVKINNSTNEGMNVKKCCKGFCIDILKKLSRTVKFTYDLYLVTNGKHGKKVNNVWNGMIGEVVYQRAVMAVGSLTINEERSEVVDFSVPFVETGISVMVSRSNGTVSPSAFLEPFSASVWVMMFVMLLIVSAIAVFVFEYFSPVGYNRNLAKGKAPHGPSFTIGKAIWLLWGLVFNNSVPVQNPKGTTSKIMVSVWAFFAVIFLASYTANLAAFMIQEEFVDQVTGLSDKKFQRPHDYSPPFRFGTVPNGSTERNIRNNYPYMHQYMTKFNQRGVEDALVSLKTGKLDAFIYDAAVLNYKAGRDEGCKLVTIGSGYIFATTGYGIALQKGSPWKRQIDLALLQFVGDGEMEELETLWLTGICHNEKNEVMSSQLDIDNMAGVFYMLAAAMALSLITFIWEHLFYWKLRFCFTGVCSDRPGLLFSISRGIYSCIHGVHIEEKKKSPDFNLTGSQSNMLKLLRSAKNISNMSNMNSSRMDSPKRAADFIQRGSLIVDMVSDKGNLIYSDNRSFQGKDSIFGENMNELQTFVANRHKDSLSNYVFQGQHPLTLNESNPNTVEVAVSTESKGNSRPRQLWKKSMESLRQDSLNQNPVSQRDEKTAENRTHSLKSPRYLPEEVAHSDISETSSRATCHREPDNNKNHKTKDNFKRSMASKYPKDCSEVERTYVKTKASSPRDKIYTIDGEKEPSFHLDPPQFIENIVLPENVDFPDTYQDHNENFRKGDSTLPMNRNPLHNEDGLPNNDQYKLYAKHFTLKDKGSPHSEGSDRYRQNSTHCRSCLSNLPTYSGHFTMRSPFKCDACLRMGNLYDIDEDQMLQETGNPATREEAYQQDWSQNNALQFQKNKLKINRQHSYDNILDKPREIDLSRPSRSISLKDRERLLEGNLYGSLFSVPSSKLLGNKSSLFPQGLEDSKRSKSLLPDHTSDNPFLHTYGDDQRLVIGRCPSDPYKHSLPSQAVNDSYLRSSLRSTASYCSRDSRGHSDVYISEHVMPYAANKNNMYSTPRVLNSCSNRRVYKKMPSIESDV
# Chain of NMDA receptor (Q01097 27-1482, other chains not shown): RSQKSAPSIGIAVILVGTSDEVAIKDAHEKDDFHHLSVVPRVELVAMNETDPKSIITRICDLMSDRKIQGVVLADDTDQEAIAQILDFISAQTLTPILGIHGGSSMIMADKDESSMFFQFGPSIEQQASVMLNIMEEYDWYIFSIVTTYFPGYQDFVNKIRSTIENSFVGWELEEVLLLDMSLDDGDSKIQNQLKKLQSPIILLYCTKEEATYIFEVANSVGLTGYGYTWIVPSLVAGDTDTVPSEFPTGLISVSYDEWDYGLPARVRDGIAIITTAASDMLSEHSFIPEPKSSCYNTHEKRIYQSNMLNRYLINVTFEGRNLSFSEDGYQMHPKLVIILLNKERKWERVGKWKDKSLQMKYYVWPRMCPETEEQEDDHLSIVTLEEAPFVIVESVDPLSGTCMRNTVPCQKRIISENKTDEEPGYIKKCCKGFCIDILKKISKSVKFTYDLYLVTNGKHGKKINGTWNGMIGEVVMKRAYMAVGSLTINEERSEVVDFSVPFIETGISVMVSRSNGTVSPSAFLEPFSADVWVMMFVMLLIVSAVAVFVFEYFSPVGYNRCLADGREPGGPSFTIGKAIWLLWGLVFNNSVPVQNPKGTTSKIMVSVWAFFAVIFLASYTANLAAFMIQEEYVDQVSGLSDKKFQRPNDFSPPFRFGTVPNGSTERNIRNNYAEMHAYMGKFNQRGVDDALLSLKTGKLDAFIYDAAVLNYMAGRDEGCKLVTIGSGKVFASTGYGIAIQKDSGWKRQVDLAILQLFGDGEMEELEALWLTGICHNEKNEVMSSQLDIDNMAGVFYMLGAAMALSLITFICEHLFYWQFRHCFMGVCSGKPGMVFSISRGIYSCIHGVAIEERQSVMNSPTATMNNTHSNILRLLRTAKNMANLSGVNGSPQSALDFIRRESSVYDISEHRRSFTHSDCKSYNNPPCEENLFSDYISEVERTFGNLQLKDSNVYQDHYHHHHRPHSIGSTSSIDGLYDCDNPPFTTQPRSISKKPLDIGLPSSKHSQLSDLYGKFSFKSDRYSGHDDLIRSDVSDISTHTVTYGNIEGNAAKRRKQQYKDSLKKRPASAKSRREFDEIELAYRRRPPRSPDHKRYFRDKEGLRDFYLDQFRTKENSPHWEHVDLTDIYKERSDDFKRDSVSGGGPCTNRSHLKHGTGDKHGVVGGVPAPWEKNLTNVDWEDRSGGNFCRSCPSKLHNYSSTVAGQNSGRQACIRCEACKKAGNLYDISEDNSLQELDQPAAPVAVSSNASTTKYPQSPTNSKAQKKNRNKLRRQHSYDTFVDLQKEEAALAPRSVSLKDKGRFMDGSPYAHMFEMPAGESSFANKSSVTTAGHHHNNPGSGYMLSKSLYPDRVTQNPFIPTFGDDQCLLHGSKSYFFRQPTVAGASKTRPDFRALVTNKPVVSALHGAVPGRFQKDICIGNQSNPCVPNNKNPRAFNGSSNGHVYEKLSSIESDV
# Procedure: MK-801 inhibition of [^3H]-MK-801 binding was assayed in P19 membranes. MK-801 concentrations are expressed as 10^−x Molar. Data points represent the mean±standard error from eight experiments. % control=((CPM−CPMbottom)/(CPMtop−CPMbottom))×100.
# [3] = system: Male Wistar rats; assay: Transient model of cerebral ischemia in rats (lesion volume); assay type: in vivo, rat; conditions: 3 mg/kg, i.p., 1 hr post ischemia onset; 24 h; average of 12
# Procedure: Male Wistar rats (Iffa Crédo, France), weighing 250-300 g, were housed 2 per cage under a light-dark cycle of 12 hr-12 hr (light on at 7:00 a.m., off at 7:00 p.m.) at a room temperature of 21±2° C., with 50±15% humidity, for a minimum of 5 days before the experiments. During this time, the rats had free access to commercial rat chow (Trouw Nutrition France, Vigny, France, ref. 811002) and tap water.
# The animals were anaesthetized with 5% halothane in air for induction, then 1-2% halothane during surgery. The rat's body temperature was maintained at 37° C. with a heating pad. A 2 cm incision was made at the center of the neck and the right common carotid artery (CCA), external carotid artery (ECA) and internal carotid artery (ICA) were exposed under an operating microscope. The ICA was further dissected to identify the pterygopalatine artery (PA) branch and the intracranial ICA branch. The CCA was ligated. A 3-0 silk suture was tied at the origin of the ECA and ligated. A catheter (id=0.58 mm) was introduced into the CCA through a small puncture and advanced to the intracranial branch of the ICA. A 4-0 surgical nylon suture was introduced into the catheter. A length of approximately 19 mm of nylon suture was gently advanced from the CCA into the lumen of the ICA until the suture blocked the origin of the MCA. The suture was sealed into the catheter by heat, leaving 1 cm of catheter protruding so the suture could be withdrawn to allow reperfusion. The incision was closed using skin clips. Anaesthesia was then terminated and the animals were placed under heat lamps until recovery from anaesthesia. The rats awakened 10-15 min later. After 2 hr of ischemia, reperfusion was performed by withdrawal of the suture until the tip cleared the ICA lumen. Vehicle or test compound was administered intraperitoneally (i.p.) or intravenously (i.v.) at 1 hr post ischemia onset.
# 24 h after the onset of occlusion, the rats were killed by decapitation. The brains were immediately removed, frozen in isopentane and stored at −20° C. The brains were then cut in 20 μm thick sections in a cryocut. Every 20th slice was used to measure infarct area. The sections were stained with cresyl violet and the areas of infarct in the striatum and cortex were determined by planimetry using an image analysis software (Image, NIH) after digitalization of the section images.
# Following the procedure described above, MK-801, compound #46 and compound #264 (as listed in the Tables herein) were evaluated for neuroprotective effects in rats with results as listed in Table VIII. The data represent average lesion volume in mm^3 for 12 measurements. Vehicle used was 15% solutol in 5% dextrose.
# [4] = system: NMDA receptor-mediated intracellular calcium response; assay: Fura-2 imaging of glutamate/glycine-induced intracellular calcium response in P19 neurons; assay type: cell-based, murine; conditions: 100 μM MK-801, 24 hours prior to assay; 3 mM glutamate, 1 mM glycine
# Procedure: MK-801 was administered 24 hours prior to assay. […] MK-801 concentrations are expressed as 10^−x Molar. […] (FIG. 1B).
# U0126 was administered concurrently with glutamate and glycine.
# [5] = target: T1, PKG (Homo sapiens, UniProt Q13976); conditions: read-out: Potency, IC50, PKG; cited from earlier work
# T1 sequence (Q13976 1-671): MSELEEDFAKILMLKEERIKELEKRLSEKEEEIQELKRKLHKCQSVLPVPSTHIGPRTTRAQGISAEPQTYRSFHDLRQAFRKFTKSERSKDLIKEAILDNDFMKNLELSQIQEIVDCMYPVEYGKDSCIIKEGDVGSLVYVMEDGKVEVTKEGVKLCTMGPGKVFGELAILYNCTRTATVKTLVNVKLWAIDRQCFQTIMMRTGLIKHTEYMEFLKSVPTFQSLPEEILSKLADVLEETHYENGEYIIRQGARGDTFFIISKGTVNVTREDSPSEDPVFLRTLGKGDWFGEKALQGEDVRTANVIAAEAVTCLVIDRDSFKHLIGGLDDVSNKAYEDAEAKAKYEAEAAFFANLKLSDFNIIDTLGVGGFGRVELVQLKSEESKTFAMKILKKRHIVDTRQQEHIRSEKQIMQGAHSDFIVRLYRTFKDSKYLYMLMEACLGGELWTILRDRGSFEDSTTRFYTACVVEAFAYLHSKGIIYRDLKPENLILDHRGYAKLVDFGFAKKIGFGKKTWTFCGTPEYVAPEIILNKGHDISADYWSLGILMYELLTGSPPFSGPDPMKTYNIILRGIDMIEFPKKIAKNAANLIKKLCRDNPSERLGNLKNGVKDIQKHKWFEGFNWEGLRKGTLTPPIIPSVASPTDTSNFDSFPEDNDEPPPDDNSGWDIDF
# [6] = system: PKC; conditions: read-out: Potency, IC50, PKC; cited from earlier work
# [7] = target: PKA (Homo sapiens, UniProt P17612); conditions: read-out: Potency, IC50, PKA; cited from earlier work
# [8] = target: p60^c-src (Homo sapiens, UniProt P12931); conditions: read-out: Potency, IC50, p60^c-src; cited from earlier work
# Chain of p60^c-src (P12931 whole entry): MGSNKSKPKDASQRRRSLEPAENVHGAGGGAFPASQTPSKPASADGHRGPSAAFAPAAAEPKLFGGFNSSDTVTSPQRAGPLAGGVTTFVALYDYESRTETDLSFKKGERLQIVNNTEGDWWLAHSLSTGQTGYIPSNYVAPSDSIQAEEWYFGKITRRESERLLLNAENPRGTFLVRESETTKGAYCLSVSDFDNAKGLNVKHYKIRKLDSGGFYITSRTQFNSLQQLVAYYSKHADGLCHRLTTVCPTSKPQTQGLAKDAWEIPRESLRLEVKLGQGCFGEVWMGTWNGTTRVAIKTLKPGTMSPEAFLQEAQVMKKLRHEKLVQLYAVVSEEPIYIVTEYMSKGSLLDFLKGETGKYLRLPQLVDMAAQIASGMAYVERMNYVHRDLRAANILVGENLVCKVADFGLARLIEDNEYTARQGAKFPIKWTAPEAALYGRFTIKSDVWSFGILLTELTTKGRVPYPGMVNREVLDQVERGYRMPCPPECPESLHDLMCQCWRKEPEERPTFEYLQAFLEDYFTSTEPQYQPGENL
# [9] = target: EGF receptor (Homo sapiens, UniProt P00533); conditions: read-out: Potency, IC50, EGF receptor; cited from earlier work
# Chain of EGF receptor (P00533 25-1210): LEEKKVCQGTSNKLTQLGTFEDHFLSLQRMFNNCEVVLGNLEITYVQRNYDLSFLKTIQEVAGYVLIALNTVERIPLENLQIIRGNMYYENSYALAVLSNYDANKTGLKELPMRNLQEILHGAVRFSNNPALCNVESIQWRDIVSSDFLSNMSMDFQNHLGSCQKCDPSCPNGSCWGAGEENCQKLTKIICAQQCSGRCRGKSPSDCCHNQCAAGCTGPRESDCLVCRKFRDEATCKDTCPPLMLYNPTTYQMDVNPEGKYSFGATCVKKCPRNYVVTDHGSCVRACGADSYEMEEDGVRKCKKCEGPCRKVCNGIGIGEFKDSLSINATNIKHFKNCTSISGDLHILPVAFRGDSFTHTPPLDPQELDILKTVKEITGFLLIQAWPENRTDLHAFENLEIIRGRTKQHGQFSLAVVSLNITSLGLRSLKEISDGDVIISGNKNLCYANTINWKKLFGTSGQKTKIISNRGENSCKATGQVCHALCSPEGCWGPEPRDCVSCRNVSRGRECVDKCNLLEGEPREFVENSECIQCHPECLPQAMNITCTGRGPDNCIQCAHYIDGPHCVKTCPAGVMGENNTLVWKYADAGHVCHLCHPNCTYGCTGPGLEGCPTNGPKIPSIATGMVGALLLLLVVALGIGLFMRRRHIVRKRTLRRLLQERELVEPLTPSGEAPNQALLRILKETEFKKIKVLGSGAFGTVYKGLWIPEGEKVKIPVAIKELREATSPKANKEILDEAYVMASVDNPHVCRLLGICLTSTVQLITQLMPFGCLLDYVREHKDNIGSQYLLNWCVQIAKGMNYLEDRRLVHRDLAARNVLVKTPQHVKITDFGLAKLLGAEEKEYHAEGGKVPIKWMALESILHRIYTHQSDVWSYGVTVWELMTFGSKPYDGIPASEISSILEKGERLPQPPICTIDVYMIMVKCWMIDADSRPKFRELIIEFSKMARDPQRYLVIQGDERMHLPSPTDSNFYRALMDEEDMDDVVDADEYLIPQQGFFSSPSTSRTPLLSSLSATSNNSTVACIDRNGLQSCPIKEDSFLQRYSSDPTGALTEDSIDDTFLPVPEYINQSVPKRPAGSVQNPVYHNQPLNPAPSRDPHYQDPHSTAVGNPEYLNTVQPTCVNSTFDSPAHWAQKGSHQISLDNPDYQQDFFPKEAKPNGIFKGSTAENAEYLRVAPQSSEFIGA
# [10] = system: P19 neurons; assay: Post-treatment time course of neuroprotection in P19 neurons (delayed neuroprotection); assay type: cell-based, murine; conditions: compound added after glutamate challenge
# Source text: Time-course of efficacy is an extremely relevant parameter for a potential neuroprotective therapeutic agent, since the therapeutic would need to be administered hours to days after an ischemic event and still retain efficacy.
smiles,measurement,setting,value
"C[C@]12N[C@H](Cc3ccccc31)c1ccccc12 [MK-801, reference compound]",Maximal protection against glutamate toxicity,[1]; 3 mM glutamate and 1 mM glycine,close to control levels
same,inhibition of [3H]-MK-801 binding achieved,[2],100%
same,Cortex + Striatum Vol. (mm^3),[3],205.4 ± 28.0 mm^3
same,Cortex Vol. (mm^3),[3],135.0 ± 26.1 mm^3
same,Striatum Vol. (mm^3),[3],70.4 ± 2.9 mm^3
same,effect on intracellular calcium response to NMDA receptor agonists,[4],significantly inhibited this response
COc1c(C[C@@H](C)OC(=O)Oc2ccc(O)cc2)c2c3c(C[C@@H](C)OC(=O)c4ccccc4)c(OC)c(=O)c4c(O)cc(OC)c(c5c(OC)cc(O)c(c1=O)c52)c43 [Calphostin C],Maximal Efficacy for Neuroprotection,[1],˜50%
same,IC50,[1],> 1000 nM
same,IC50,[5],> 25000 nM
same,IC50,[6],~50 nM
same,IC50,[7],> 50000 nM
same,IC50,[8],> 50000 nM
O=C(O)c1cc(N(Cc2ccccc2O)Cc2cc(O)ccc2O)ccc1O [Lavendustin A],Maximal Efficacy for Neuroprotection,[1],<25%
same,IC50,[1],> 10000 nM
same,IC50,[8],~500 nM
same,IC50,[9],~11 nM
COc1cc(N)nc2[nH]c(-c3ccc(F)cc3)c(-c3ccncc3)c12 [Compound A],time after glutamate challenge at which efficacy was lost,[10],15 min
